Test: Degradation kinetics (hydrolysis) of oligolactate monomers, HPLC
Format: physicochemical
Settings: pH 7.4, 37° C.
Method: The degradation kinetic studies of HEMAm-oligolactates were conducted as described by Neradovic et al [Macromolecules; 2003; 36(20); 7491-7498]. In brief, a 10 mM solution of HEMAm-oligolactate in DMSO was diluted 10 times with 100 mM PBS (pH 7.4) in a glass vial and the pH was adjusted to pH 7.4 with 4 M HCl. The resulting solutions of HEMAm-monolactate, -dilactate, -trilactate and—tetralactate were incubated in a shaking water bath at 37° C. At regular time intervals samples of 300 μl were withdrawn and 700 μl of 1 M sodium acetate buffer (pH 3.8) was added to prevent further hydrolysis. The samples were stored at 4° C. prior to HPLC analysis. The hydrolysis of HEMAm-trilactate and—tetralactate was also investigated in an acetonitril-PBS pH7.2 mixture (50:50 w/w) of lower dielectric constant to slow down the hydrolysis rate. The HPLC analysis was carried out on a Waters system (Waters Associates Inc., Milford, Mass., USA). This consisted of a pump Model 600, an autoinjector Model 717, a variable wavelength absorbance detector Model 996 and an analytical reversed phase column LiChrosphere 100 RP-18 (5 μm, 125×4 mm i.d.) with an RP-18 guard column (4×4 mm) (Merck) was used. The injection volume was 50 μl and the detection wavelength was 254 nm. […] The chromatograms were analyzed with Empower Software Version 1154 (Waters Associates Inc.). […]

Row | Structure (SMILES) | hydrolysis kinetics compared
1 | C=C(C)C(=O)NCCOC(=O)C(C)OC(=O)C(C)OC(=O)C(C)O (centres unmarked) [HEMAm-Lac3, HEMAm-trilactate] | even faster hydrolysis kinetics than HEMAm-Lac1-2
2 | C=C(C)C(=O)NCCOC(=O)C(C)OC(=O)C(C)OC(=O)C(C)OC(=O)C(C)O (centres unmarked) [HEMAm-Lac4, HEMAm-tetralactate] | even faster hydrolysis kinetics than HEMAm-Lac1-2
